Assay results as given in publication PMC4158172 (European Journal of Clinical Pharmacology, 2014).
Values joined by “and” are separate entries in the source; they are usually repeats but may differ in a detail not shown here. Equal values may be shown once.

Experiments:
[1] = parameters: method as in PMID 19884365; settings: healthy subjects; cited from earlier work
[2] = parameters: method as in PMID 23075918; settings: DTG 50 mg twice daily with rifampin; cited from earlier work
[3] = tested on: CYP3A4; settings: cited from earlier work
[4] = DTG steady-state plasma pharmacokinetics, interaction with TPV/r
Procedure: Two studies were conducted in healthy volunteer subjects as judged by physical exam, medical history and laboratory testing. These studies are registered with ClinicalTrials.gov (NCT01068925; protocol number ING113096 and NCT01098526; protocol number ING114005). Adult men and women of non-childbearing potential were enrolled. Subjects were excluded if they tested positive for HIV or hepatitis C antibodies or hepatitis B surface antigen. Subjects were not allowed to receive any prescription or non-prescription drugs, including vitamins or herbal products, within 7 days of dosing and throughout the study.
This was a phase I, open-label, single-sequence, three-period, steady-state study. Eighteen subjects received DTG 50 mg q24h for 5 days (period 1). […] There was no washout between treatment periods. All doses were administered with a moderate-fat meal.
Dolutegravir and EFV were measured in plasma samples using validated methods, which consisted of extraction from plasma by protein precipitation with acetonitrile containing [^15N^2H7]dolutegravir or [^2H4]-efavirenz as the internal standards, respectively. The plasma extracts were injected onto a 2.1 × 50 mm 3.5-micron XBridge™ C18 column (Waters Associates, Milford, MA, USA). Dolutegravir was eluted with a mobile phase consisting of 40 % acetonitrile in aqueous 0.1 % formic acid, and EFV was eluted with a mobile phase consisting of acetonitrile/0.1 % formic acid (65 % v/v) in a 5-mM ammonium acetate buffer containing 0.1 % acetic acid (35 % v/v). The eluates were detected by using a Sciex API 4000™ (AB Sciex, Framingham, MA, USA) equipped with a TurboIonSpray® ionisation source with multiple reaction monitoring (DTG positive ion mode m/z 420 > 277; internal standard m/z 428 > 277; EFV negative ion mode m/z 314 > 243; internal standard m/z 318 > 247). Data acquisition and processing were performed with Analyst 1.4.2 software (AB Sciex), and linear regression analysis calculations were performed using the Study Management System, SMS™ 2000 v.2.2 (GlaxoSmithKline, Research Triangle Park, NC, USA). The calibration range for DTG was 0.020 to 20 μg/mL and for EFV was 0.10 to 20 μg/mL. Quality control samples prepared separately at three concentrations were stored with study samples and analysed with each batch of samples against separately prepared calibration standards.
A non-compartmental PK analysis of the concentration-time data was performed with WinNonlin (version 5.2, Pharsight Corporation, Mountain View, CA, USA). Plasma PK parameters for both DTG and EFV were calculated using actual recorded times for each treatment. Parameters that were determined included AUC from time zero to the end of the dosage interval (AUC(0–τ)), maximum observed plasma concentration (C max), the time of maximum observed plasma concentration (T max) and plasma concentration at the end of the dosing interval (C τ).
Statistical analyses were performed on the log-transformed PK parameters: AUC(0–τ), C τ and C max. […] Efavirenz PK data were compared with historical data. Subject was fitted as a random effect and treatment was fitted as a fixed effect in the model. The ratio of geometric least-squares means and associated 90 % confidence intervals were estimated for the PK parameters of interest.

[5] = tested on: CYP1A2; parameters: method as in PMID 23132334; settings: in vitro; cited from earlier work
[6] = both, human, plasma, oral, 50 mg
[7] = co-administration with TPV/r 500/200 mg q12h

## C[C@@H]1CCO[C@H]2Cn3cc(C(=O)NCc4ccc(F)cc4F)c(=O)c(O)c3C(=O)N12 [DTG, Dolutegravir]
[1]
  effect on midazolam exposure: no significant effect
[2]
  C τ higher than with DTG 50 mg once daily alone: 22%
[3]
  induction of CYP3A4: not an inducer
[4]; DTG+TPV/r vs DTG alone, n=14
  GLS mean ratio (90 % CI) of AUC(0–τ): 0.409 (0.379, 0.443)
  GLS mean ratio (90 % CI) of C max: 0.535 (0.500, 0.572)
  GLS mean ratio (90 % CI) of C τ: 0.239 (0.212, 0.270)
[4]; both, human, in vivo, 50 mg
  Tmax: 3 h
[4]; [6]
  AUC: 64500 ng·h/mL
  Cmax: 4530 ng/mL
  concentration at 24 h: 1480 ng/mL
[4]; [7]
  decrease in plasma DTG AUC(0–τ): 59%
  decrease in plasma DTG C max: 46%
  decrease in plasma DTG C τ: 76% and 75%
[5]
  induction of CYP1A2: not an inducer
